Data published in US20040220224A1, “Method of treating irritable bowel syndrome” (Pfizer Inc, priority 2003, published 2004).

Tested on: female BALB/c or CD-1 mice
Experiment: Intestinal motility model in mice (gastrointestinal transit of red dye)
Format: in vivo
Conditions: mice fasted 24 h, red dye 1 h after treatment, measured 20 min later
Experimental: Intestinal Motility Model:
An intestinal motility model in mice may be used to evaluate of antimuscarinic compounds of formulae I-V as potential treatment for irritable bowel syndrome. In the studies, female BALB/c or CD-1 mice are fasted for 24 hours and then treated orally with one or more compounds of formulae I-V or vehicle. One hour after of treatment, the mice receive a red dye mixture via gastric gavage. Twenty minutes later, the animals are euthanized and the small intestine is removed. Gastrointestinal transit (GIT) is calculated using the measured length of the small intestine from the pyloric sphincter to the ileocecal junction and the distance traveled by the red dye front. Percent inhibition is indicated above bars.

SMILES	inhibition of gastrointestinal transit (GIT) (oral dose 10 mg/kg) [%]	inhibition of gastrointestinal transit (GIT) (oral dose 30 mg/kg)	inhibition of gastrointestinal transit (GIT) (oral dose 60 mg/kg)
Cc1ccc(O)c([C@H](CC[N+](C)(C(C)C)C(C)C)c2ccccc2)c1 [Example 3, (3R)-3-(2-Hydroxy-5-methylphenyl)-N,N-diisopropyl-N-methyl-3-phenylpropan-1-aminium bromide]	17	29%	28%
C[N+]1(CCc2ccc3c(c2)CCO3)CC[C@@H](C(C(N)=O)(c2ccccc2)c2ccccc2)C1.[I-] (stereo partly drawn) [Example 27, (3S)-3-(2-amino-2-oxo-1,1-diphenylethyl)-1-[2-(2,3-dihydro-1-benzofuran-5-yl)ethyl]-1-methylpyrrolidinium iodide]	13	20%	30%
NC(=O)C(c1ccccc1)(c1ccccc1)[C@@H]1CCN(CCc2ccc3c(c2)CCO3)C1 [reference compound]		about 15%	about 15%
